Molecules are shown by their SMILES. Read-outs that look alike come from different tables or passages of the source.

Common to all, as to assay type: cell-based
In assay [1] the test system is VEGF in human retinal capillary endothelial cells (HRCECs). Put plainly: CoCl2-induced VEGF over-expression, ELISA of conditioned medium. To be noted: 24 h, CoCl2 200 μM; for reduction of VEGF levels: n=3. The method, then: To address if new antioxidants block VEGF over-expression induced by hypoxia, we measured levels of VEGF in human retinal capillary endothelial cells (HRCECs) after the exposure of CLT010-01, CLT010-07, and CLT010-12. The effect of new oxidants was compared with curcumin. HRCECs were seeded at a density of 4×10^4 cells/well in 400 μl of growth medium in triplicate in gelatin-coated 24-well plates, 24 h prior to the experiments. VEGF over-expression was induced by 200 μM of cobalt chloride (CoCl2). Cells were incubated with the medium in the presence or absence of CoCl2 and CoCl2 plus curcumin, CLT010-01, CLT010-07 and CLT010-12 at the concentrations of 0.5, 2, and 4 μM. The conditioned medium was collected 24 h after treatment. VEGF concentrations were measured by ELISA specific for VEGF using a commercial kit (R & D Systems, Minneapolis, Minn.). CoCl2 induced VEGF over-expression by 53.1±13.9%, compared to the untreated cells. The novel antioxidants reduced the expression of VEGF (FIGS. 3A and 3B). CLT010-01 reduced the VEGF levels by 48.8±7.8% at 4 μM (p<0.001, n=3). CLT010-07 inhibited the VEGF levels by 45.2±8.5 (p<0.01, n=3) and 57.2±4.4% (p<0.001, n=3) at 2 and 4 μM, respectively. CLT010-12 suppressed the VEGF expression by 24.2±10 (p<0.01, n=3), 58.2±7.2 (p<0.001, n=3), and 67.3±4.4% (p<0.001, n=3) at 0.5, 2 and 4 μM (p<0.001, n=3), respectively (FIG. 3B).
According to embodiments of experimental data shown in FIG. 3, HRCECs were cultured in the presence or absence of CoCl2, CoCl2 plus curcumin, CLT010-01, CLT010-07, and CLT010-12 at concentrations as indicated. The conditioned medium was collected after 24 h treatment. VEGF levels were measured by ELISA. In FIG. 3A, VEGF concentrations in the medium from the untreated cells, CoCl2-treated cells, and CoCl2 plus compound-treated cells are shown. In FIG. 3B, the percentage of VEGF concentrations in the medium from CoCl2 plus compound-treated cells compared with that of the medium from CoCl2-treated cells is shown. CoCl2 plus compounds plus vs. CoCl2: *p<0.01, p<0.001, n=3.
(ELISA stands for enzyme-linked immunosorbent assay.)

The subject of another assay is pericytes. The assay is described as follows: MTT cell proliferation assay, pericytes. The note with it: 72 hours. Here is the method:
(§1) Primary bovine retinal capillary endothelial cells (BRCECs), pericytes and human prostate adenocarcinoma cells (PC-3), and human breast cancer cells (MCF-7 and MDA-MB-231) were treated with the CLT010 compounds at various concentrations for 72 hours.

In assay [2] the test system is human breast cancer cells (MCF-7). The assay is described as follows: MTT cell proliferation assay, MCF-7. To be noted: mean±SD, n=3. Here is the method: as §1
On the technique in general: Formazan colour is commonly taken as a measure of viable cells.

Assay [3] deals with TNF-α-stimulated generation of reactive oxygen species in human retinal pigment epithelial cells (ARPE-19). The assay is described as follows: TNF-α-stimulated intracellular ROS generation (CM-H2DCFDA fluorescence). The note with it: for reduction of ROS: 24 h pretreatment, TNF-α 20 ng/ml, ARPE-19, n=6; for effect on ROS production: same concentration range (2-8 μM), same conditions. The method, then: The intracellular generation of ROS was stimulated by TNF-α. Human retinal pigment epithelial cells (ARPE-19) were cultured on 96-well plates and pretreated with or without aminoguanidine, curcumin, and the CLT010 compounds for 24 h. TNF-α was added into culture medium at the concentration of 20 ng/ml and incubated with the cells for 1 h at 37° C. To measure ROS generation, 5-(and -6)-chloromethyl-2′,7′-dichlorodihydrofluorescein diacetate (CM-H2DCFDA) was added to the cells and incubated for 45 min. The relative fluorescence intensity representing the intracellular generation of ROS was measured using FLUOstar Omega at an emission wavelength of 535 nm, after excitation at 485 nm. TNF-α stimulated the intracellular generation of ROS by 36.9±8.4%, compounded with the untreated cells. Novel antioxidants reduced the intracellular ROS. At concentration of 8 μM, CLT010-01 reduced ROS by 40.5±6.3% (p<0.01, n=6), and CLT010-07 reduced ROS by 50.6±6.8% (p<0.01, n=6).
According to embodiments of experimental data shown in FIG. 2, ARPE-19 cells were pretreated with aminoguanidine, curcumin, CLT010-01, CLT010-07, and CLT010-12 at indicated concentrations for 24 h prior to the addition of TNF-α (20 ng/ml). The cells were incubated with CM-H2DCFDA for 45 min. Relative fluorescent intensity in the untreated cells, TNF-α-stimulated cells and compound plus TNF-α-treated cells. In FIG. 2B, the percentage of relative fluorescent intensity in each compound plus TNF-α-treated cells compared with that of TNF-α-stimulated cells is shown as the compound plus TNF-α vs TNF-α alone: *p<0.05, p<0.01, n=6.

Assay [4] has as its system human prostate adenocarcinoma cells (PC-3). Put plainly: MTT cell proliferation assay, PC-3. To be noted: 72 hours, mean±SD, n=3. Here is the method: as §1
The next assay has as its system Du145. The assay is described as follows: MTT cell proliferation assay, Du145. To be noted: mean±SD, n=3. Here is the method: [The source words this procedure for another cell line and reports this cell line under the same test.] as §1
Assay [5] relates to human breast cancer cells (MDA-MB-231). Put plainly: MTT cell proliferation assay, MDA-MB-231. To be noted: mean±SD, n=3. Here is the method:
as §1

The subject of the next assay is PC-3M. The assay is described as follows: MTT cell proliferation assay, PC-3M. The note with it: 72 hours, mean±SD, n=3. The method, then: [The source words this procedure for another cell line and reports this cell line under the same test.] as §1
Assay [6] has as its system Primary bovine retinal capillary endothelial cells (BRCECs). The assay is described as follows: MTT cell proliferation assay, BRCECs. The note with it: 72 hours, mean±SD, n=3, read-out: IC50 (μM) BRCEC. The method, then:
as §1

Another assay concerns cancer cells. Put plainly: MTT cell proliferation assay, cancer cells (summary over lines). The note with it: Homo sapiens, 72 hours, range across cancer cell lines, read-out: IC50, growth of cancer cells (range over cell lines). Here is the method:
as §1

`COc1cc(/C=C/C(=O)CC(=O)/C=C/c2ccc(OS(N)(=O)=O)c(OC)c2)ccc1OS(N)(=O)=O` [CLT010-01]: the “reduction of VEGF levels” value in assay [1] (4 μM) is 48.8±7.8%. For the same molecule, in the assay on pericytes, the “inhibition of the growth of pericytes” value is recorded as “did not significantly inhibit”. Also, the IC50 came out at 5.5 ± 1.2 µM in assay [2] (72 hours); 15.8 ± 1.6 µM in assay [4]; 25.9 ± 0.3 µM in the assay with Du145 (72 hours); 3.1 ± 1.3 µM in [5] (72 hours); 8.5 ± 0.5 µM with PC-3M. Further, in [3] (8 μM), the “reduction of ROS” value came out at 40.5±6.3%.
For `COc1cc(/C=C/C(=O)/C=C/c2cc(OC)c(OS(N)(=O)=O)c(OC)c2)cc(OC)c1OS(N)(=O)=O` [CLT010-12], the “reduction of VEGF levels” value in [1] (0.5 μM) came to 24.2±10%; in assay [1] (2 μM) it was 58.2±7.2%; in assay [1] (4 μM), 67.3±4.4%. Also, the “inhibition of the growth of pericytes” value in the assay on pericytes is reported as “did not significantly inhibit”. Moreover, the IC50 in assay [6] was 3.6 ± 0.2 µM; in assay [2] (72 hours), 1.5 ± 0.1 µM; in [4], 1.9 ± 0.04 µM; with Du145 (72 hours) it was 6.3 ± 0.2 µM; in [5] (72 hours), 0.6 ± 0.1 µM; in the assay on PC-3M, 4.2 ± 0.1 µM. The “reduction of ROS” value in assay [3] (2 μM) turned out to be 15.3±2.9%; in assay [3] (4 μM), 32.9±5.9%; in assay [3] (8 μM), 55.1±3.9%.
`COc1cc(/C=C/C(=O)CC(=O)/C=C/c2ccc(O)c(OC)c2)ccc1O` [Curcumin]: the IC50 was 9.5 to 25.6 µM with cancer cells; 13.8 µM in assay [6] (Bos taurus, Endothelial cell); 21.5 ± 4.7 µM in assay [2] (Homo sapiens, MCF7, 72 hours); 9.5 ± 1.6 µM in assay [4] (Homo sapiens); 20.7 ± 3.5 µM in the assay on Du145 (Homo sapiens, DU-145, 72 hours); 25.6 ± 4.8 µM in assay [5] (Homo sapiens, MDA-MB-231, 72 hours). For the same molecule, in the assay with PC-3M (Homo sapiens, PC-3M), it took 10.7 ± 1.3 µM to reach half-maximal inhibition (IC50). Further, the “inhibition of the release of VEGF from cells into medium” value in assay [1] (0.5, 2, and 4 μM, p>0.05, n=3) is reported as “did not significantly inhibit”. In addition, the “effect on ROS production” value in assay [3] is reported as “did not significantly affect”.
As for `COc1cc(/C=C/c2cc(/C=C/c3ccc(OS(N)(=O)=O)c(OC)c3)[nH]n2)ccc1OS(N)(=O)=O` [CLT010-07], the results for the “reduction of VEGF levels” value in assay [1] (2 μM) and in [1] (4 μM) were 45.2±8.5% and 57.2±4.4%, respectively. Besides, the “inhibition of the growth of pericytes” value in the assay with pericytes was “did not significantly inhibit”. For the same molecule, the concentration for half-maximal inhibition (IC50) is 3.9 ± 0.1 µM in assay [6]; 6.5 ± 0.1 µM in assay [2] (72 hours); 1.8 ± 0.3 µM in assay [4]; 5.3 ± 2.4 µM with Du145 (72 hours); 6.2 ± 1.6 µM in assay [5] (72 hours); 6.7 ± 0.7 µM in the assay with PC-3M. In addition, in [3] (8 μM), the “reduction of ROS” value was determined as 50.6±6.8%.
On to `N=C(N)NN` [Aminoguanidine, reference compound], for which the IC50 in assay [6] (Bos taurus, Endothelial cell) was more than 32 µM. Also, the “effect on ROS production” value in assay [3] is “did not significantly affect”.

A word on the IC50: it is the concentration needed to halve the response being measured.

The values above are taken from patent US8329757B2, “Curcumin analog compositions and related methods” (Charlesson, LLC, priority 2008, dated 2012).
